These results are taken from patent US20120094963A1, “TARGETING PRODRUGS AND COMPOSITIONS FOR THE TREATMENT OF GASTROINTESTINAL DISEASES” (of Queen Elizabeth near Dublin, priority 2008, published 2012).

Molecules are shown by their SMILES. “And” between values parts separate entries of the source, which are not always exact repeats. Equal entries are not always repeated. Where two headings read alike, the source gives them in different places.

In one data set the test system is Clostridium perfringens. The settings on record: anaerobic, 37° C.; for Celecoxib prodrug concentration: C. perfringens in BHI.
The conditions of data set [1]: BHI media without bacteria.
For the next data set, the system named is intestinal polyps. Particulars: 100 ppm in the diet; min mice; cited from earlier work.
The conditions of data set [2]: long-term (33 months) high-dose, 400 and 800 mg daily; cited from earlier work.
The test system of another data set is small intestinal polyps. Particulars: 50 mg/kg qd p.o.; APCmin mice; cited from earlier work.
The conditions of data set [3]: cited from earlier work; for risk of heart attack: VIGOR study patients.
The conditions of data set [4]: APPROVe; beginning after 18 months of therapy; cited from earlier work.

For `Cc1ccc(-c2cc(C(F)(F)F)nn2-c2ccc(S(=O)(=O)NC(=O)CCc3ccccc3/N=N/c3ccc(O)c(C(=O)O)c3)cc2)cc1` [PC1, 2-Hydroxy-5-(2-3{-oxo-3[4-(5-p-tolyl-3-trifluoromethyl-pyrazol-1-yl)-benzenesulfonylamino]-propyl}-phenylazo)-benzoic acid], the Celecoxib prodrug concentration in the data set with Clostridium perfringens (0 hours) is 15.59 µM and 14.97 µM; in the data set with Clostridium perfringens (8 hours), 0.00 µM; in the data set with Clostridium perfringens (24 hours) it was 0.00 µM. In the data set on Clostridium perfringens, the “Azoreductase activity of Clostridium perfringens towards the prodrug” value was “Azoreductase activity was observed”. The “Celecoxib prodrug in BHI” value in data set [1] (0 hours) is 16.70 µM; in data set [1] (2 hours) it was 18.40 µM; in data set [1] (4 hours) it was 17.14 µM; in data set [1] (6 hours) it was 15.29 µM; in data set [1] (8 hours), 15.15 µM; in data set [1] (24 hours), 16.99 µM.
`CC(C)c1c(C(=O)Nc2ccccc2)c(-c2ccccc2)c(-c2ccc(F)cc2)n1CC[C@@H](O)C[C@@H](O)CC(=O)O` [atorvastatin]: the intestinal polyp formation entry in the data set with intestinal polyps was “significantly (P<0.002) suppressed intestinal polyp formation”.
Turning to `Cc1ccc(-c2cc(C(F)(F)F)nn2-c2ccc(S(N)(=O)=O)cc2)cc1` [celecoxib], the cardiovascular risk entry in data set [2] is listed as “increased cardiovascular risk compared with placebo”.
As to `C#Cc1cccc(Nc2ncnc3cc(OCCOC)c(OCCOC)cc23)c1` [erlotinib], in the data set on small intestinal polyps, the “inhibition in total polyp number” value was 57%, the “reduction in the number of 1- to 2-mm-sized polyps” value is 46%, the “reduction in the number of <1-mm-sized polyps” value is given as 43% and the “reduction in the number of large-sized (>2 mm) polyps” value is listed as 96%.
Regarding `COc1ccc2cc([C@H](C)C(=O)O)ccc2c1` [naproxen], in data set [3], the “risk of heart attack” value is listed as 0.1%.
For the molecule `CS(=O)(=O)c1ccc(C2=C(c3ccccc3)C(=O)OC2)cc1` [rofecoxib], in data set [3], the “risk of heart attack” value is 0.4%. For the same molecule, in data set [3] (VIGOR study, naproxen patients compared with rofecoxib patients), the “RR of heart attack” value is recorded as 0.25. Moreover, the “risk of adverse thrombotic cardiovascular events” value in data set [4] is “increased relative risk of adverse thrombotic cardiovascular events”.
